Assay results reported in ChEMBL document CHEMBL1201862, “PubChem BioAssay data set” (2004).
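96-well plates; 48 h exposure; 5 concentrations. Endpoints by linear interpolation between flanking doses. Not reached: highest tested concentration assigned. GI50 is the concentration that inhibits growth by half.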 Activity calls are given as the source filed them. Rule as the data show it: active = GI50 up to about 1.1 µM and inactive = higher.

Legend:
Assay in all cases: inhibition of tumour cell growth, NCI panel, 48 h
HCT-15 = system: HCT-15
CAKI-1 = system: CAKI-1
RXF 631 = system: RXF 631
SK-MEL-5 = system: SK-MEL-5
SNB-78 = system: SNB-78
MOLT-4 = system: MOLT-4
UACC-62 = system: UACC-62
SK-OV-3 = system: SK-OV-3
SW-620 = system: SW-620
RPMI-8226 = system: RPMI-8226
SF-295 = system: SF-295
Malme-3M = system: Malme-3M
OVCAR-3 = system: OVCAR-3
OVCAR-8 = system: OVCAR-8
OVCAR-4 = system: OVCAR-4
HCT-116 = system: HCT-116
M14 = system: M14
CCRF-CEM = system: CCRF-CEM
HOP-62 = system: HOP-62
KM12 = system: KM12
U-251 = system: U-251
NCI-H460 = system: NCI-H460
A549 = system: A549
A498 = system: A498
K562 = system: K562
SF-539 = system: SF-539
EKVX = system: EKVX
HL-60 = system: HL-60
IGROV-1 = system: IGROV-1
KM-20L2 = system: KM-20L2
UACC-257 = system: UACC-257
UO-31 = system: UO-31
OVCAR-5 = system: OVCAR-5
TK-10 = system: TK-10
DLD-1 = system: DLD-1
M19-MEL = system: M19-MEL
HCC 2998 = system: HCC 2998
SK-MEL-2 = system: SK-MEL-2
786-0 = system: 786-0
ACHN = system: ACHN
LXFL 529 = system: LXFL 529
SNB-19 = system: SNB-19
COLO 205 = system: COLO 205
NCI-H226 = system: NCI-H226
NCI-H522 = system: NCI-H522
RXF 393 = system: RXF 393
SF-268 = system: SF-268
HOP-92 = system: HOP-92
LOX IMVI = system: LOX IMVI
SN12C = system: SN12C
HT-29 = system: HT-29
DMS-273 = system: DMS-273
DMS-114 = system: DMS-114
SK-MEL-28 = system: SK-MEL-28
NCI-H23 = system: NCI-H23
SNB-75 = system: SNB-75

Cc1cccc(NC(=O)/C(=N\NC(C)(C)C)C2NC(=S)NC2=O)c1C (configuration not stated)
GI50 (HCT-15): > 100 µM
GI50 (CAKI-1): 15.4 µM (inactive)
GI50 (RXF 631): > 100 µM (inactive)
GI50 (SK-MEL-5): > 100 µM (inactive)
GI50 (SNB-78): > 100 µM (inactive)
GI50 (MOLT-4): > 100 µM (inactive)
GI50 (UACC-62): > 100 µM (inactive)
GI50 (SK-OV-3): > 100 µM (inactive)
GI50 (SW-620): > 100 µM (inactive)
GI50 (RPMI-8226): > 100 µM (inactive)
GI50 (SF-295): > 100 µM (inactive)
GI50 (Malme-3M): > 100 µM (inactive)
GI50 (OVCAR-3): > 100 µM (inactive)
GI50 (OVCAR-8): > 100 µM (inactive)
GI50 (OVCAR-4): > 100 µM (inactive)
GI50 (HCT-116): > 100 µM (inactive)
GI50 (M14): > 100 µM (inactive)
GI50 (CCRF-CEM): > 100 µM (inactive)
GI50 (HOP-62): > 100 µM (inactive)
GI50 (KM12): > 100 µM (inactive)
GI50 (U-251): > 100 µM (inactive)
GI50 (NCI-H460): > 100 µM (inactive)
GI50 (A549): > 100 µM (inactive)
GI50 (A498): > 100 µM (inactive)
GI50 (K562): > 100 µM (inactive)
GI50 (SF-539): > 100 µM (inactive)
GI50 (EKVX): 59.6 µM (inactive)
GI50 (HL-60): > 100 µM (inactive)
GI50 (IGROV-1): > 100 µM (inactive)
GI50 (KM-20L2): > 100 µM (inactive)
GI50 (UACC-257): > 100 µM (inactive)
GI50 (UO-31): > 100 µM (inactive)
GI50 (OVCAR-5): > 100 µM (inactive)
GI50 (TK-10): > 100 µM (inactive)
GI50 (DLD-1): > 100 µM (inactive)
GI50 (M19-MEL): > 100 µM (inactive)
GI50 (HCC 2998): > 100 µM (inactive)
GI50 (SK-MEL-2): > 100 µM (inactive)
GI50 (786-0): > 100 µM (inactive)
GI50 (ACHN): > 100 µM (inactive)
GI50 (LXFL 529): > 100 µM (inactive)
GI50 (SNB-19): > 100 µM (inactive)
GI50 (COLO 205): > 100 µM (inactive)

BrC1=CC=C2NCCCCCC/N=C3\C=CC(Br)=CC=C3NCCCCCC/N=C\2C=C1
GI50 (NCI-H226): > 25.5 µM (inactive)
GI50 (HCT-15): > 25.5 µM
GI50 (NCI-H522): > 25.5 µM (inactive)
GI50 (RXF 393): > 25.5 µM (inactive)
GI50 (CAKI-1): > 25.5 µM (inactive)
GI50 (RXF 631): > 25.5 µM (inactive)
GI50 (SK-MEL-5): > 25.5 µM (inactive)
GI50 (SNB-78): > 25.5 µM (inactive)
GI50 (MOLT-4): > 25.5 µM (inactive)
GI50 (UACC-62): > 25.5 µM (inactive)
GI50 (SK-OV-3): > 25.5 µM (inactive)
GI50 (SW-620): > 25.5 µM (inactive)
GI50 (RPMI-8226): > 25.5 µM (inactive)
GI50 (SF-295): > 25.5 µM (inactive)
GI50 (Malme-3M): > 25.5 µM (inactive)
GI50 (SF-268): > 25.5 µM (inactive)
GI50 (HOP-92): > 25.5 µM (inactive)
GI50 (OVCAR-3): > 25.5 µM (inactive)
GI50 (OVCAR-8): > 25.5 µM (inactive)
GI50 (OVCAR-4): > 25.5 µM (inactive)
GI50 (HCT-116): > 25.5 µM (inactive)
GI50 (M14): > 25.5 µM (inactive)
GI50 (CCRF-CEM): > 25.5 µM (inactive)
GI50 (LOX IMVI): > 25.5 µM (inactive)
GI50 (SN12C): > 25.5 µM (inactive)
GI50 (HT-29): > 25.5 µM (inactive)
GI50 (DMS-273): > 25.5 µM (inactive)
GI50 (HOP-62): > 25.5 µM (inactive)
GI50 (KM12): > 25.5 µM (inactive)
GI50 (U-251): > 25.5 µM (inactive)
GI50 (NCI-H460): > 25.5 µM (inactive)
GI50 (A549): > 25.5 µM (inactive)
GI50 (A498): > 25.5 µM (inactive)
GI50 (K562): > 25.5 µM (inactive)
GI50 (SF-539): > 25.5 µM (inactive)
GI50 (EKVX): > 25.5 µM (inactive)
GI50 (DMS-114): > 25.5 µM (inactive)
GI50 (SK-MEL-28): > 25.5 µM (inactive)
GI50 (HL-60): > 25.5 µM (inactive)
GI50 (NCI-H23): > 25.5 µM (inactive)
GI50 (IGROV-1): > 25.5 µM (inactive)
GI50 (KM-20L2): > 25.5 µM (inactive)
GI50 (UACC-257): > 25.5 µM (inactive)
GI50 (UO-31): > 25.5 µM (inactive)
GI50 (OVCAR-5): > 25.5 µM (inactive)
GI50 (TK-10): > 25.5 µM (inactive)
GI50 (DLD-1): > 25.5 µM (inactive)
GI50 (M19-MEL): > 25.5 µM (inactive)
GI50 (HCC 2998): > 25.5 µM (inactive)
GI50 (SK-MEL-2): > 25.5 µM (inactive)
GI50 (786-0): > 25.5 µM (inactive)
GI50 (ACHN): > 25.5 µM (inactive)
GI50 (SNB-75): > 25.5 µM (inactive)
GI50 (SNB-19): > 25.5 µM (inactive)
